Experimental data as given in patent publication US20140121216A1, “INDOLEAMINE DERIVATIVES FOR THE TREATMENT OF CENTRAL NERVOUS SYSTEM DISEASES” (Adamed Sp. z o.o., priority 2011, published 2014).

Tests used:
[1] = biological target: T1, 5-HT6 (h), human recombinant (CHO cells) (Homo sapiens, UniProt P50406); assay: Cellular functional assay 5-HT6 (h) antagonism; type: cell-based; details: compound 1×10^−6 M, stimulus serotonin 100 nM, read-out: 5-HT6-antag [%]
T1 construct: expressed in transfected cells; host or cells: CHO cells
T1 sequence (P50406 whole entry): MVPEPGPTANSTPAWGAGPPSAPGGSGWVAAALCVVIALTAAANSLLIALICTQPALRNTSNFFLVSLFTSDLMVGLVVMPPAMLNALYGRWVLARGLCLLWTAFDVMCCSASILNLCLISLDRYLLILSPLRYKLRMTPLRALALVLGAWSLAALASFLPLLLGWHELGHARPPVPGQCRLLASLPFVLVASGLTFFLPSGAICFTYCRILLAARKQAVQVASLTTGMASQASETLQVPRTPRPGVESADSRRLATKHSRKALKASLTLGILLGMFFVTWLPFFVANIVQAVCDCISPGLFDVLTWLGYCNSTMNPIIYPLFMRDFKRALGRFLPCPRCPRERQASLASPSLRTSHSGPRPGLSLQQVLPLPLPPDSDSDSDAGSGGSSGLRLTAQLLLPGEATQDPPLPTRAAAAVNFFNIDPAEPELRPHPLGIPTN
Procedure: (§1) The results are expressed as a percent of control specific agonist response ((measured specific response/control specific agonist response)×100) obtained in the presence of tested compound.
(§2) The EC50 values (concentration producing a half-maximal specific response) and IC50 values (concentration causing a half-maximal inhibition of the control specific agonist response) were determined by non-linear regression analysis of the concentration-response curves generated with mean replicate values using Hill equation curve fitting (Y=D+[(A−D)/(1+(C/C50)nH)], where Y=specific response, D=minimum specific response, A=maximum specific response, C=compound concentration, and C50=EC50 or IC50, and nH=slope factor).
(§3) For the antagonists, the apparent dissociation constants (Kb) were calculated using the modified Cheng Prusoff equation (Kb=IC50/(1+(A/EC50A)), where A=concentration of reference agonist in the assay, and EC50A=EC50 value of the reference agonist).

[2] = biological target: T2, D3 (h), human recombinant (CHO cells) (Homo sapiens, UniProt P35462); assay: Cellular functional assay D3 (h) agonism; type: cell-based; details: compound 1×10^−6 M; control 0.3 μM dopamine
T2 construct: expressed in transfected cells; host or cells: CHO cells
T2 sequence (P35462 whole entry): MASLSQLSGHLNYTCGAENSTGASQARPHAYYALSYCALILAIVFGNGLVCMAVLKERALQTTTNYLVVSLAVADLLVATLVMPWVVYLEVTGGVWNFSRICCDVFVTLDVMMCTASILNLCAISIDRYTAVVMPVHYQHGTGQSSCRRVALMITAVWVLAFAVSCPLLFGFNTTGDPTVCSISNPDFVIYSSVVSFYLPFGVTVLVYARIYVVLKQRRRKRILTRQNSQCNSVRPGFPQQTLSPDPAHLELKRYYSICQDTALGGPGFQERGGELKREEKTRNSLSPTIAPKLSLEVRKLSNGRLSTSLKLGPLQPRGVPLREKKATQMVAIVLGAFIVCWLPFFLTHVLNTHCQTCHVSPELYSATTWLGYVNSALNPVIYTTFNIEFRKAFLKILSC
Procedure: as §1, §2, §3

[3] = biological target: T2, D3 (h), human recombinant (CHO cells); assay: Cellular functional assay D3 (h) antagonism; type: cell-based; details: compound 1×10^−6 M; stimulus dopamine 10 nM
Procedure: as §1, §2, §3

[4] = biological target: T3, D2S (h), human recombinant (HEK-293 cells) (Homo sapiens, UniProt P14416); assay: Cellular functional assay D2S (h) agonism; type: cell-based; details: HEK293; compound 1×10^−6 M; control 3 μM dopamine; read-out: D2-ag [%]
T3 construct: expressed in transfected cells; host or cells: HEK-293 cells
T3 sequence (P14416 1-414 isoform P14416-2): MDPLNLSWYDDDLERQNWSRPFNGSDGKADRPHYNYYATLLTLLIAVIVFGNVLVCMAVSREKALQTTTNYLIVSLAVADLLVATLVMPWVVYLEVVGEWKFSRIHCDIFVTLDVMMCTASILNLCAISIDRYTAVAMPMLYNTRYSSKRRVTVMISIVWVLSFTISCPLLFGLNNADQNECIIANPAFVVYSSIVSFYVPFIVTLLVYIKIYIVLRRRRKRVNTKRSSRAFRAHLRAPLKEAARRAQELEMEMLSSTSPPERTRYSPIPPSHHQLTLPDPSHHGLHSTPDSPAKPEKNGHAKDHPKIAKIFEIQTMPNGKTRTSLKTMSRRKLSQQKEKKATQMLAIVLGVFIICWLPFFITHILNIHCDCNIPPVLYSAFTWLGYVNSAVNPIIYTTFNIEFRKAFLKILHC
Procedure: as §1, §2, §3

[5] = biological target: T4, 5-HT1A (h), human recombinant (CHO cells) (Homo sapiens, UniProt P08908); assay: Cellular functional assay 5-HT1A (h) antagonism; type: cell-based; details: compound 1×10^−6 M; stimulus 8-OH-DPAT 10 nM
T4 construct: expressed in transfected cells; host or cells: CHO cells
T4 sequence (P08908 1-422): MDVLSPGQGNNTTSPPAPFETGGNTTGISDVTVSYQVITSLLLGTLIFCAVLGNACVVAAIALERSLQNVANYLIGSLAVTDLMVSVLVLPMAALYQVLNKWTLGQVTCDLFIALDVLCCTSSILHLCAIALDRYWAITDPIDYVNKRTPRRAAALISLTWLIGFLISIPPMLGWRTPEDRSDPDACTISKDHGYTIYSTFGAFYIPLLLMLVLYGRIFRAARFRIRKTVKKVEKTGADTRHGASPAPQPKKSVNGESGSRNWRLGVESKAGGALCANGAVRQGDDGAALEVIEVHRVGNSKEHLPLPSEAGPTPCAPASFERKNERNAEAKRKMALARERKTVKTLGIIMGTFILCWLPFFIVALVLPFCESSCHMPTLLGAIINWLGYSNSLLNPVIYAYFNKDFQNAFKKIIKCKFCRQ
Procedure: as §1, §2, §3

[6] = biological target: T3, D2S (h), human recombinant (HEK-293 cells); assay: Cellular functional assay D2S (h) antagonism; type: cell-based; details: HEK293; compound 1×10^−6 M; stimulus dopamine 30 nM; read-out: D2-antag [%]
Procedure: as §1, §2, §3

[7] = biological target: T4, 5-HT1A (h), human recombinant (CHO cells); assay: Cellular functional assay 5-HT1A (h) agonism; type: cell-based; details: compound 1×10^−6 M; control 100 nM 8-OHDPAT
Procedure: as §1, §2, §3

[8] = biological target: T5, D4.4 receptor, human recombinant (CHO cells) (Homo sapiens, UniProt P21917); assay: Binding assay, dopaminergic D4.4 receptor ([3H]methylspiperone); details: compound 1×10^−6 M
T5 construct: expressed in transfected cells; host or cells: CHO cells
T5 sequence (P21917 1-419): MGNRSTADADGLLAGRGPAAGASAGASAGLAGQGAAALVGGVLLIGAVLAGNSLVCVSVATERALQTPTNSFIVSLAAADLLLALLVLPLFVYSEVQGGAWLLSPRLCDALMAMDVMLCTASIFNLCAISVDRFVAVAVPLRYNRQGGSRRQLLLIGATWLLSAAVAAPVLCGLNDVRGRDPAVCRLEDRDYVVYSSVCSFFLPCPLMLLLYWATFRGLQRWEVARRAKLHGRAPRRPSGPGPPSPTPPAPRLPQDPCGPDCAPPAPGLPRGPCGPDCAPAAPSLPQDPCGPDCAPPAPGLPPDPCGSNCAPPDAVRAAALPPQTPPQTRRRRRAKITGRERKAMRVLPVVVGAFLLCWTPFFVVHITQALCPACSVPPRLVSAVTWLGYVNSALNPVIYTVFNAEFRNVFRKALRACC
Procedure: Moreover, ability of the compounds of the invention to block potassium channel hERG was tested.
The specific ligand binding to the receptors is defined as the difference between the total binding and the non-specific binding determined in the presence of an excess of unlabelled ligand.
The inhibition constants (Ki) were calculated using the Cheng Prusoff equation (Ki=IC50/(1+(L/KD)), where L=concentration of radioligand in the assay, and KD=affinity of the radioligand for the receptor). A Scatchard plot is used to determine the Kd. The IC50 values (concentration causing a half-maximal inhibition of control specific binding) and Hill coefficients (nH) were determined by non-linear regression analysis of the competition curves generated with mean replicate values using Hill equation curve fitting (Y=D+[(A−D)/(1+(C/C50)^nH)], where Y=specific binding, D=minimum specific binding, A=maximum specific binding, C=compound concentration, C50=IC50, and nH=slope factor). This analysis was performed using a software developed at Cerep (Hill software) and validated by comparison with data generated by the commercial software SigmaPlot® 4.0 for Windows® (©1997 by SPSS Inc.).
Experimental conditions for tests are given in Table 1, the results of tests for so representative compounds are given in Table 2a and 2b (receptors D2 and D3) and in Table 3 (receptors D4).

[9] = biological target: T1, 5-HT6 (h), human recombinant (CHO cells); assay: Cellular functional assay 5-HT6 (h) agonism; type: cell-based; details: compound 1×10^−6 M, control 10 μM serotonin, read-out: 5-HT6-ag [%]
Procedure: as §1, §2, §3

O=C1CCc2ccc(OCCCCN3CCN(c4cccc5c4ccn5Cc4cccc(F)c4)CC3)cc2N1 [Compound 63, 7-[4-[4-[1-[(3-Fluorophenyl)methyl]indol-4-yl]piperazin-1-yl]butoxy]-3,4-dihydro-1H-quinolin-2-one]
inhibition at 1 µM [1]: 61% | D3-ag [%] [2]: 20% | D3-antag [%] [3]: 72% | activation at 1 µM [4]: 47% | 5-HT1A-antag [%] [5]: 73% | inhibition at 1 µM [6]: 108% | 5-HT1A-ag [%] [7]: 26% | D4.4 [%] binding assay result [8]: 46% | activation at 1 µM [9]: -1%

O=C1CCc2ccc(OCCCCN3CCN(c4cccc5c4ccn5Cc4cccc(Cl)c4)CC3)cc2N1 [Compound 67, 7-[4-[4-[1-[(3-Chlorophenyl)methyl]indol-4-yl]piperazin-1-yl]butoxy]-3,4-dihydro-1H-quinolin-2-one]
inhibition at 1 µM [1]: 53% | D3-ag [%] [2]: 11% | D3-antag [%] [3]: 74% | activation at 1 µM [4]: 46% | 5-HT1A-antag [%] [5]: 56% | inhibition at 1 µM [6]: 103% | 5-HT1A-ag [%] [7]: 23% | D4.4 [%] binding assay result [8]: 44% | activation at 1 µM [9]: 0%

NC(=O)c1ccccc1OCCCN1CCN(c2cccc3c2ccn3S(=O)(=O)c2ccccc2)CC1 [Compound 72, 2-[3-[4-[1-(Benzenesulfonyl)indol-4-yl]piperazin-1-yl]propoxy]-benzamide]
inhibition at 1 µM [1]: 103% | D3-ag [%] [2]: 34% | D3-antag [%] [3]: 74% | activation at 1 µM [4]: 34% | 5-HT1A-antag [%] [5]: 61% | inhibition at 1 µM [6]: 95% | 5-HT1A-ag [%] [7]: 16% | D4.4 [%] binding assay result [8]: 95% | activation at 1 µM [9]: -2%

O=C1CCc2ccc(OCCCCN3CCN(c4cccc5c4ccn5Cc4ccccc4)CC3)cc2N1 [Compound 5, 7-(4-(4-(1-Benzyl-1H-indol-4-yl)piperazin-1-yl)butoxy)-3,4-dihydroquinolin-2(1H)-one]
inhibition at 1 µM [1]: 42% | D3-ag [%] [2]: 22% | D3-antag [%] [3]: 43% | activation at 1 µM [4]: 47% | 5-HT1A-antag [%] [5]: 31% | inhibition at 1 µM [6]: 99% | 5-HT1A-ag [%] [7]: 66% | D4.4 [%] binding assay result [8]: 40% | activation at 1 µM [9]: -1%

O=C1CCc2ccc(OCCCN3CCN(c4cccc5c4ccn5Cc4ccccc4)CC3)cc2N1 [Compound 4, 7-[3-[4-(1-Benzylindol-4-yl)piperazin-1-yl]propoxy]-3,4-dihydro-1H-quinolin-2-one]
inhibition at 1 µM [1]: 73% | D3-ag [%] [2]: 22% | D3-antag [%] [3]: 29% | activation at 1 µM [4]: 45% | 5-HT1A-antag [%] [5]: 17% | inhibition at 1 µM [6]: 89% | 5-HT1A-ag [%] [7]: 63% | D4.4 [%] binding assay result [8]: 63% | activation at 1 µM [9]: 0%

O=C1CCc2ccc(OCCCN3CCN(c4cccc5c4ccn5S(=O)(=O)c4ccccc4)CC3)cc2N1 [Compound 23, 7-[3-[4-[1-(Benzensulphonyl)indol-4-yl]piperazin-1-yl]propoxy]-3,4-dihydro-1H-quinolin-2-one]
inhibition at 1 µM [1]: 42% | D3-ag [%] [2]: 65% | D3-antag [%] [3]: −19% | activation at 1 µM [4]: 40% | 5-HT1A-antag [%] [5]: 20% | inhibition at 1 µM [6]: 55% | 5-HT1A-ag [%] [7]: 69% | D4.4 [%] binding assay result [8]: 18% | activation at 1 µM [9]: 2%

O=C1CCc2ccc(OCCCCN3CCN(c4cccc5c4ccn5S(=O)(=O)c4ccccc4)CC3)cc2N1 [Compound 24, 7-(4-(4-(1-(Phenylsulphonyl)-1H-indol-4-yl)piperazin-1-yl)butoxy)-3,4-dihydroquinolin-2(1H)-one]
inhibition at 1 µM [1]: 88.7% | D3-ag [%] [2]: 13% | D3-antag [%] [3]: 63.2% | activation at 1 µM [4]: 47% | 5-HT1A-antag [%] [5]: 0% | inhibition at 1 µM [6]: 93% | 5-HT1A-ag [%] [7]: 69.7% | D4.4 [%] binding assay result [8]: 42% | activation at 1 µM [9]: 0%
